Measurements taken from US11701355B2, “Levosimendan for treating pulmonary hypertension with heart failure with preserved ejection fraction (PH-HFpEF)” (Tenax Therapeutics, Inc., priority 2019, dated 2023).
“Also recorded” adds a separate entry of the source.

What was measured:
PH-HFpEF patients [1] = experiment: HELP Study double-blind phase: weekly 24-hour infusions for 5 weeks vs placebo, assessment at Week 6; format: in vivo, human; conditions: for mean pulmonary arterial pressure (mPAP) / right atrial pressure (RAP) / six-minute walk test distance: Week 6, compared with placebo; for pulmonary capillary wedge pressure (PCWP): baseline vs Week 6, compared with placebo
Description: Study drug is administered via i.v. infusion over 24 hours weekly through Week 5 via a PICC line. Infusions (Week 2-5) are done in the subject's home by a study nurse. Patients return to the study site for a visit between the Week 3 and Week 4 infusions for assessment of subject safety/response and need for dose adjustment. Each subject is to return on Week 6 for assessment of efficacy and safety on study drug. A right heart catheter will be inserted to obtain hemodynamic measurements at rest and exercise at baseline, the following day after the lead-in 24-hour infusion, and during Week 6.
During the Lead-in phase of the study, a sufficient number of subjects are enrolled and receive levosimendan to identify a total of 36 ‘responders.’ The levosimendan ‘responders’ are randomized 1:1, levosimendan or placebo, for the double-blind phase of the study.
During the Double-blind phase, study drug concentrated solution (2.5 mg/mL), levosimendan or placebo, is mixed with diluent and administered via a PICC line as weekly infusions at 0.075 μg/kg/min for 24 hours. Patients undergo a dose escalation at Week 4 and 5 (0.10 μg/kg/min for 24 hours) unless there has been a meaningful change in blood pressure or heart rate. Infusion rates may be reduced to 0.05 μg/kg/min if the higher dose is not well-tolerated at any time during the initial 5 weeks.
Visits at Weeks 2, 3, 4, and 5 are performed within +/−48 hours of the scheduled visit. Visits for Weeks 2-5 are calculated based on the date of the Lead-in infusion. These visits are performed at the subject's home with the aid of the home health care nurse. The home health care nurse remains with the patient for the first 2-3 hours of the infusion to ensure patient safety. The home health care nurse visits the patient again at 24 hours to stop the infusion and assess the patient's status. During this visit, the following procedures are performed: Record any changes in procedures, prescription and non-prescription drugs, vitamins, and dietary or herbal supplements; measure vital signs prior to starting the infusion, after the first 2 hours (+/−30 min), and after 24 hours (+/−30 min); assess adverse events and study drug administration. At Week 5, all patients are given a new cardiac monitoring sensor to wear on their chest to measure cardiac rhythm, as was done during Screening. The patch is applied prior to (<1 hour) the 24-hour infusion, remain monitoring the patient for a minimum of 72 hours and returned to the investigational site at the Week 6 visit.
Visits at Week 6 should be performed 3-6 days following completion of the Week 5 infusion. During this visit, the following procedures are performed: record any changes in procedures, prescription and non-prescription drugs, vitamins, and dietary or herbal supplements; measure vital signs (BP, PR, respiratory rate, temperature); hematology and clinical chemistry blood samples; conduct 12-lead ECG; echocardiogram within +/−72 hours of the Week 6 visit; right heart catheterization at rest and with exercise; QOL assessment; Child-Pugh Class, NYHA Functional Class, assess adverse events, 6 minute walk test; and pharmacokinetic sampling (sample to be taken prior to enrollment in Open-Label phase.
The 6-minute walk test (6MWT) is performed at approximately the same time of day at each study visit after the Baseline Visit and ideally, one of the first assessments to be performed. The ECHO and subject questionnaire are performed after the 6MWT has been completed. The 6MWT is performed using the methods described in the American Thoracic Society (ATS) Statement: Guidelines for the Six-Minute Walk Test. The test is performed at approximately the same time of day when assessed and by the same evaluator whenever possible.

PH-HFpEF patients [2] = experiment: Open-label extension (rollover) study: six-minute walk distance and Likert quality of life; format: in vivo, human
Description: This is an open-label rollover study to allow patients to continue levosimendan treatment if the patient has tolerated treatment in the HELP clinical study seen in Example 1.
Study drug concentrated solution (2.5 mg/mL), levosimendan, is mixed with diluent and administered as weekly infusions at 0.075 μg/kg/min for 24 hrs. Patients may have a dose escalation at Weeks 3 at a rate of 0.10 μg/kg/min for 24 hours, unless there has been a meaningful change in blood pressure or heart rate or other prohibitive rationale.
Visits at Weeks 3, 6, 12, 24, 48 and Follow-Up Visit (at termination) are performed within 72 hours of the scheduled weekly visit. These visits are performed at the investigator's office. The Follow-Up Visit (at termination) is calculated as the earlier of two years from the subject's date of entry into this extension study or as soon as possible after study discontinuation, but within 1 week. During this visit, the following procedures are performed: Vital signs; body weight (Week 3 only); 6MWT; Quality of Life assessment; NYHA Functional Class; Physician Assessment; assess adverse events, and concomitant medications and/or procedures.

[3] = system: phosphodiesterase-3 (PDE3); conditions: in vitro; cited from earlier work
[4] = parent drug, intravenous infusion; cited from earlier work
[5] = system: patients afflicted with pulmonary hypertension; conditions: chronic dosing over an 8-week period; cited from earlier work
[6] = chronic (weekly for 5 weeks) administration, week 6
[7] = weekly 24-hour infusions, listed as Levosimendan
[8] = weekly 24-hour infusions, compared with placebo

C[C@@H]1CC(=O)NN=C1c1ccc(NN=C(C#N)C#N)cc1 [levosimendan, Levosimendan]
Cardiac Index (CI) (PH-HFpEF patients [1]; [6]): unchanged at week 6
pulmonary vascular resistance (PVR) (PH-HFpEF patients [1]; [6]): unchanged at week 6
pulmonary vascular resistance (PVR) (PH-HFpEF patients [1]; chronic (weekly for 5 weeks) administration, week 6, listed as Levosimendan): did not decrease
safety and tolerability (PH-HFpEF patients [1]; weekly 24-hour dosing): safe and well tolerated
mean pulmonary arterial pressure (mPAP) (PH-HFpEF patients [1]; weekly 24-hour infusions): significantly greater reduction; also recorded: decrease
right atrial pressure (RAP) (PH-HFpEF patients [1]; weekly 24-hour infusions): decrease; also recorded: significantly greater reduction
six-minute walk test distance (PH-HFpEF patients [1]; weekly 24-hour infusions): significantly increased; also recorded: increase; also recorded: statistically significant improvement
mean pulmonary arterial pressure (mPAP) (PH-HFpEF patients [1]; [7]): reduces
right atrial pressure (RAP) (PH-HFpEF patients [1]; [7]): improves
six-minute walk test distance (PH-HFpEF patients [1]; [7]): improves
pulmonary capillary wedge pressure (PCWP) (PH-HFpEF patients [1]; weekly 24-hour infusions): significant vs placebo; also recorded: greater decrease
pulmonary capillary wedge pressure (PCWP) (PH-HFpEF patients [1]; [7]): improves
cardiac output (PH-HFpEF patients [1]; [8]): significantly greater increase
proportion of subjects with an improved sense of well-being (PH-HFpEF patients [1]; [8]): significantly higher proportion
increase of six-minute walk distance, average (PH-HFpEF patients [2]; n=8): 30 meters
patients with increased overall sense of well-being (five-point Likert Scale) (PH-HFpEF patients [2]; n=8): 7 out of 8
six-minute walk distance after levosimendan, average (PH-HFpEF patients [2]; n=8, baseline 292): 322 meters
improvement on the five-point Likert scale (PH-HFpEF patients [2]; patients who improved): 1-2 points
PDE3/PDE4 inhibition ratio [3]: 10,000
half-life [4]: approximately 1 hour
efficacy [5]: failed to show efficacy
